Measured values taken from ChEMBL document CHEMBL1201862, “PubChem BioAssay data set” (2004).
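Assay format: 96-well plates, 48-hour exposure. GI50 marks 50% less growth.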 Active and inactive are the calls of the source. No stated cut-off is given here; in the data, active = GI50 up to about 1.1 µM and inactive = higher.

Columns and labels:
Assay in all cases: NCI anticancer screen, dose series, 48 h
786-0 = tested on: 786-0
A498 = tested on: A498
A549 = tested on: A549
ACHN = tested on: ACHN
BT-549 = tested on: BT-549
CAKI-1 = tested on: CAKI-1
CCRF-CEM = tested on: CCRF-CEM
COLO 205 = tested on: COLO 205
DU-145 = tested on: DU-145
EKVX = tested on: EKVX
HCC 2998 = tested on: HCC 2998
HCT-116 = tested on: HCT-116
HCT-15 = tested on: HCT-15
HL-60 = tested on: HL-60
HOP-62 = tested on: HOP-62
HOP-92 = tested on: HOP-92
HT-29 = tested on: HT-29
Hs-578T = tested on: Hs-578T
IGROV-1 = tested on: IGROV-1
K562 = tested on: K562
KM12 = tested on: KM12
LOX IMVI = tested on: LOX IMVI
M14 = tested on: M14
MCF7 = tested on: MCF7
MDA-MB-231 = tested on: MDA-MB-231
MDA-N = tested on: MDA-N
MOLT-4 = tested on: MOLT-4
Malme-3M = tested on: Malme-3M
NCI-H226 = tested on: NCI-H226
NCI-H23 = tested on: NCI-H23
NCI-H460 = tested on: NCI-H460
NCI-H522 = tested on: NCI-H522
NCI/ADR-RES = tested on: NCI/ADR-RES
OVCAR-3 = tested on: OVCAR-3
OVCAR-4 = tested on: OVCAR-4
OVCAR-8 = tested on: OVCAR-8
PC-3 = tested on: PC-3
RPMI-8226 = tested on: RPMI-8226
SF-268 = tested on: SF-268
SF-295 = tested on: SF-295
SF-539 = tested on: SF-539
SK-MEL-28 = tested on: SK-MEL-28
SK-MEL-2 = tested on: SK-MEL-2
SK-MEL-5 = tested on: SK-MEL-5
SK-OV-3 = tested on: SK-OV-3
SN12C = tested on: SN12C
SNB-19 = tested on: SNB-19
SR = tested on: SR
SW-620 = tested on: SW-620
T47D = tested on: T47D
TK-10 = tested on: TK-10
U-251 = tested on: U-251
UACC-257 = tested on: UACC-257
UACC-62 = tested on: UACC-62
UO-31 = tested on: UO-31
MDA-MB-435 = tested on: MDA-MB-435
OVCAR-5 = tested on: OVCAR-5
RXF 393 = tested on: RXF 393
SNB-75 = tested on: SNB-75

S=C1NNC(=S)NN1
GI50 (786-0): > 1000 nM (active) | GI50 (A498): > 1000 nM (active) | GI50 (A549): > 1000 nM (active) | GI50 (ACHN): 582 nM (active) | GI50 (BT-549): 522 nM (active) | GI50 (CAKI-1): 225 nM (active) | GI50 (CCRF-CEM): 342 nM (active) | GI50 (COLO 205): > 1000 nM (active) | GI50 (DU-145): 316 nM (active) | GI50 (EKVX): > 1000 nM (active) | GI50 (HCC 2998): > 1000 nM (active) | GI50 (HCT-116): 230 nM (active) | GI50 (HCT-15): > 1000 nM | GI50 (HL-60): > 1000 nM (active) | GI50 (HOP-62): 292 nM (active) | GI50 (HOP-92): > 1000 nM (active) | GI50 (HT-29): 230 nM (active) | GI50 (Hs-578T): 697 nM (active) | GI50 (IGROV-1): 436 nM (active) | GI50 (K562): 178 nM (active) | GI50 (KM12): > 1000 nM (active) | GI50 (LOX IMVI): 180 nM (active) | GI50 (M14): 533 nM (active) | GI50 (MCF7): 328 nM (active) | GI50 (MDA-MB-231): > 1000 nM (active) | GI50 (MDA-N): > 1000 nM (active) | GI50 (MOLT-4): 258 nM (active) | GI50 (Malme-3M): 594 nM (active) | GI50 (NCI-H226): > 1000 nM (active) | GI50 (NCI-H23): 251 nM (active) | GI50 (NCI-H460): > 1000 nM (active) | GI50 (NCI-H522): 432 nM (active) | GI50 (NCI/ADR-RES): > 1000 nM (active) | GI50 (OVCAR-3): > 1000 nM (active) | GI50 (OVCAR-4): > 1000 nM (active) | GI50 (OVCAR-8): > 1000 nM (active) | GI50 (PC-3): > 1000 nM (active) | GI50 (RPMI-8226): 288 nM (active) | GI50 (SF-268): 387 nM (active) | GI50 (SF-295): 219 nM (active) | GI50 (SF-539): > 1000 nM (active) | GI50 (SK-MEL-28): > 1000 nM (active) | GI50 (SK-MEL-2): > 1000 nM (active) | GI50 (SK-MEL-5): 887 nM (active) | GI50 (SK-OV-3): > 1000 nM (active) | GI50 (SN12C): 198 nM (active) | GI50 (SNB-19): > 1000 nM (active) | GI50 (SR): 239 nM (active) | GI50 (SW-620): 218 nM (active) | GI50 (T47D): 951 nM (active) | GI50 (TK-10): > 1000 nM (active) | GI50 (U-251): 583 nM (active) | GI50 (UACC-257): > 1000 nM (active) | GI50 (UACC-62): 296 nM (active) | GI50 (UO-31): > 1000 nM (active)

C(=C\c1ccccc1)/C=N/c1ccc2c(c1)Cc1ccccc1-2
GI50 (786-0): 54200 nM (inactive) | GI50 (A498): > 100000 nM (inactive) | GI50 (A549): > 100000 nM (inactive) | GI50 (ACHN): > 100000 nM (inactive) | GI50 (BT-549): 60400 nM (inactive) | GI50 (CAKI-1): > 100000 nM (inactive) | GI50 (CCRF-CEM): 14700 nM (inactive) | GI50 (DU-145): 31300 nM (inactive) | GI50 (EKVX): 49100 nM (inactive) | GI50 (HCT-116): 35900 nM (inactive) | GI50 (HCT-15): > 100000 nM | GI50 (HOP-62): > 100000 nM (inactive) | GI50 (HOP-92): > 100000 nM (inactive) | GI50 (HT-29): > 100000 nM (inactive) | GI50 (Hs-578T): 50800 nM (inactive) | GI50 (IGROV-1): 61500 nM (inactive) | GI50 (K562): 34200 nM (inactive) | GI50 (KM12): > 100000 nM (inactive) | GI50 (LOX IMVI): 23900 nM (inactive) | GI50 (M14): 62200 nM (inactive) | GI50 (MDA-MB-231): 65000 nM (inactive) | GI50 (MDA-MB-435): 58100 nM (inactive) | GI50 (MDA-N): 44000 nM (inactive) | GI50 (MOLT-4): 31000 nM (inactive) | GI50 (Malme-3M): > 100000 nM (inactive) | GI50 (NCI-H226): > 100000 nM (inactive) | GI50 (NCI-H23): 36100 nM (inactive) | GI50 (NCI-H460): 58100 nM (inactive) | GI50 (NCI-H522): 36800 nM (inactive) | GI50 (NCI/ADR-RES): 51300 nM (inactive) | GI50 (OVCAR-3): 46000 nM (inactive) | GI50 (OVCAR-4): 63800 nM (inactive) | GI50 (OVCAR-5): > 100000 nM (inactive) | GI50 (OVCAR-8): 57900 nM (inactive) | GI50 (PC-3): 69000 nM (inactive) | GI50 (RXF 393): > 100000 nM (inactive) | GI50 (SF-268): 38900 nM (inactive) | GI50 (SF-295): > 100000 nM (inactive) | GI50 (SK-MEL-28): 97300 nM (inactive) | GI50 (SK-MEL-2): 57100 nM (inactive) | GI50 (SK-MEL-5): 98900 nM (inactive) | GI50 (SN12C): 41100 nM (inactive) | GI50 (SNB-19): 61400 nM (inactive) | GI50 (SNB-75): 38600 nM (inactive) | GI50 (SR): 24000 nM (inactive) | GI50 (SW-620): 69000 nM (inactive) | GI50 (T47D): 76700 nM (inactive) | GI50 (TK-10): 60800 nM (inactive) | GI50 (U-251): 18700 nM (inactive) | GI50 (UACC-62): > 100000 nM (inactive) | GI50 (UO-31): > 100000 nM (inactive)
